What was measured:
[1] = target: T1, Sodium-dependent noradrenaline transporter (Homo sapiens, UniProt P23975); assay: Displacement of [3H]Nisoxetine from human recombinant NET over-expressed in dog MDCK cells at 10 uM; assay type: cell-based
[2] = target: T2, Sodium-dependent serotonin transporter (Homo sapiens, UniProt P31645); assay: Displacement of [3H]imipramin from human recombinant SERT over-expressed in HEK293 cells at 10 uM; assay type: cell-based
Target sequence in this assay (P31645 whole entry, looked up): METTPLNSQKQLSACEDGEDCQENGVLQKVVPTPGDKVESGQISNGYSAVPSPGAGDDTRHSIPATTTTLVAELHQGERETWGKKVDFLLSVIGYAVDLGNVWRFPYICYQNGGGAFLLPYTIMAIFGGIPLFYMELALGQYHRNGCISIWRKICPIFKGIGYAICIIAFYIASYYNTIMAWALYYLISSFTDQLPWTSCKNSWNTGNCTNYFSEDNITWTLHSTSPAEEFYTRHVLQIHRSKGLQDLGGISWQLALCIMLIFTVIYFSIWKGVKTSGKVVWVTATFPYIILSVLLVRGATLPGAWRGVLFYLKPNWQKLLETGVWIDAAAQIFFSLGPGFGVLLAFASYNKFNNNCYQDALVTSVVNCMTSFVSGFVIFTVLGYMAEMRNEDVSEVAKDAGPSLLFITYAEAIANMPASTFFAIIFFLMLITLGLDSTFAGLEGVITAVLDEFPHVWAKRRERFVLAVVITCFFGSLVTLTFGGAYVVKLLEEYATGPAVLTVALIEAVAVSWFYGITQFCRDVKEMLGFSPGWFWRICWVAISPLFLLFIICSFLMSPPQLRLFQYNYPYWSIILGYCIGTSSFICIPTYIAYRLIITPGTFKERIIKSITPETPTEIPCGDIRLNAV

[3] = target: T2, Sodium-dependent serotonin transporter; settings: HEK293, at 10 µM
Target sequence in this assay (P31645 whole entry, looked up): as above
Description: Inhibition of human SERT-mediated serotonin uptake expressed in HEK293 cells at 10 uM after 15 mins by fluorescence plate reader analysis

[4] = target: T3, Sodium-dependent dopamine transporter (Homo sapiens, UniProt Q01959); assay: biochemical
T3 sequence (Q01959 whole entry): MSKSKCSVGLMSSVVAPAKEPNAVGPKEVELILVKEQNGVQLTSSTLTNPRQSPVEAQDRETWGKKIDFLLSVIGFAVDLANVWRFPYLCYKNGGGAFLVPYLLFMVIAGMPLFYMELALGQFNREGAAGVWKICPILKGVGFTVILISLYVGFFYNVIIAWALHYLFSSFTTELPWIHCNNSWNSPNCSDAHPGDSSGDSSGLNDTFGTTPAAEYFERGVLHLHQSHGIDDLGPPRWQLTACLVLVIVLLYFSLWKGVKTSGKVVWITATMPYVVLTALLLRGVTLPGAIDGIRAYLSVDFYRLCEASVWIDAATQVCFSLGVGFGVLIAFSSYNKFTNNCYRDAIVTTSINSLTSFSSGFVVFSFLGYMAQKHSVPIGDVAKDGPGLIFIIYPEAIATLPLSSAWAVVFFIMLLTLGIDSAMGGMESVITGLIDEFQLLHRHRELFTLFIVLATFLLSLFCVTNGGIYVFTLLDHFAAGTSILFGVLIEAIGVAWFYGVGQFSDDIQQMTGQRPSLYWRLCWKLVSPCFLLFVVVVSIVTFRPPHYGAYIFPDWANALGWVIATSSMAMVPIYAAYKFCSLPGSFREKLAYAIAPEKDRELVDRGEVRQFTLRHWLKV

[5] = target: T3, Sodium-dependent dopamine transporter; assay: Displacement of [3H]Win35428 from human recombinant DAT over-expressed in CHOK1 cells at 10 uM; assay type: cell-based; settings: CHO-K1
[6] = target: T1, Sodium-dependent noradrenaline transporter; assay: biochemical
[7] = target: T2, Sodium-dependent serotonin transporter; assay: biochemical; assay type: cell-based, HEK293
Target sequence in this assay (P31645 whole entry): as the sequence (P31645 whole entry, looked up) above

T1 sequence (P23975 whole entry): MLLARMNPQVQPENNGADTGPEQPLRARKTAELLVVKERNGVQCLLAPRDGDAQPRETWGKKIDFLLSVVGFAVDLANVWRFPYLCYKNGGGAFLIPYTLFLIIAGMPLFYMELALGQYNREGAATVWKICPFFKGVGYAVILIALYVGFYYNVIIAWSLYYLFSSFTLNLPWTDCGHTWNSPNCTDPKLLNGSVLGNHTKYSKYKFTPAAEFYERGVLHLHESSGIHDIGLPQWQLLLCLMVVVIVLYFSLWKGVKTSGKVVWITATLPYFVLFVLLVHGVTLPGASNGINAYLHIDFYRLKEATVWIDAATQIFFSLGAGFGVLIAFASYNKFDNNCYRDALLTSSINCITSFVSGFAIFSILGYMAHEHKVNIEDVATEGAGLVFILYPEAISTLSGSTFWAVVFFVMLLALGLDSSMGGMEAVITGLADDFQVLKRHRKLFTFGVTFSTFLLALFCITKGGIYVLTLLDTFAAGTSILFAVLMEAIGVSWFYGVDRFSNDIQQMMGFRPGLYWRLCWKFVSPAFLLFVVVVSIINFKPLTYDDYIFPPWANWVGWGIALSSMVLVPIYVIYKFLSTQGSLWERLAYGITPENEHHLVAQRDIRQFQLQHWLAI

SMILES	inhibition [1] [%]	inhibition [2] [%]	inhibition [3] [%]	IC50 [4] [nM]	inhibition [5] [%]	IC50 [6] [nM]	IC50 [7] [nM]
Clc1ccc2c(c1)CC[C@H]1NC[C@H](c3ccccc3)[C@@H]21	10	9			5		
O=C1NCC(c2ccc(Cl)c(Cl)c2)C1c1ccc(Cl)c(Cl)c1 (configuration not stated)	90	42	8.8	285	85	990	
CNCCC(Oc1ccccc1OC)c1ccccc1 (configuration not stated)			54				
Clc1ccc2c(c1)[C@@H]1[C@@H](c3ccccc3)CN[C@@H]1CC2	10	9			5		
Clc1cccc2c1CC[C@H]1NC[C@H](c3ccccc3)[C@@H]21	10	9			5		
O=C1NCC(c2ccccc2Cl)C1c1ccc(Cl)cc1 (configuration not stated)	60	26	8.5		51	7620	
CN(C)CCCN1c2ccccc2CCc2ccc(Cl)cc21 [CLOMIPRAMINE]				2780			
O=C1NCC(c2ccccc2Cl)C1c1ccc2ccccc2c1 (configuration not stated)	89	56	4.5		23	1380	
O=C1NCC(c2ccc(Cl)cc2)C1c1ccc(Cl)c(Cl)c1 (configuration not stated)	92	57	22.7	281	96	1900	
O=C1NCC(c2ccccc2Cl)C1c1ccccc1 (configuration not stated)	5	23	19.3	2140	70		
O=C1NCC(c2ccccc2Cl)C1c1ccccc1Cl (configuration not stated)	33	20	6.9		45		
O=C1NCC(c2ccccc2Cl)C1c1ccc(Cl)c(Cl)c1 (configuration not stated)	90	26	6.2	1730	87	2520	
Clc1ccc2c(c1Cl)CC[C@H]1NC[C@H](c3ccccc3)[C@@H]21	10	9			5		

The remaining lines, values ahead:

inhibition [1] [%]	inhibition [2] [%]	inhibition [3] [%]	IC50 [4] [nM]	inhibition [5] [%]	IC50 [6] [nM]	IC50 [7] [nM]	SMILES
50	20	30.8	32.7	99			O=C1NCC(c2ccc(Cl)cc2)C1c1ccccc1 (configuration not stated)
87	49	38.4	33.1	95	1660		O=C1NCC(c2cccc(Cl)c2)C1c1ccc(Cl)cc1 (configuration not stated)
91	79	26.3	160	97	1190	6450	O=C1NCC(c2ccc(Cl)cc2)C1c1ccc2ccccc2c1 (configuration not stated)
83	90	50.4	99.6	76	2030	85.6	O=C1NCC(c2ccc(Cl)c(Cl)c2)C1c1ccc(Cl)cc1 (configuration not stated)
74	49	23.4	81.5	97	3570		O=C1NCC(c2ccc(Cl)cc2)C1c1ccccc1Cl (configuration not stated)
72	22	12.2	36.3	99	3820		O=C1NCC(c2ccc(Cl)cc2)C1c1cccc(Cl)c1 (configuration not stated)
41	39	20.2	17.3	96			O=C1NCC(c2cccc(Cl)c2)C1c1ccccc1Cl (configuration not stated)
75	84	58.1	179	99	5180	99.2	O=C1NCC(c2ccc(Cl)cc2)C1c1ccc(Cl)cc1 (configuration not stated)
87	49	29.4	36.6	83	866		O=C1NCC(c2ccc(Cl)c(Cl)c2)C1c1ccccc1 (configuration not stated)
94	69	4.4	121	86	483	965	O=C1NCC(c2ccc(Cl)c(Cl)c2)C1c1ccc2ccccc2c1 (configuration not stated)
93	57	20.4	41.7	87	384		O=C1NCC(c2ccc(Cl)c(Cl)c2)C1c1cccc(Cl)c1 (configuration not stated)
78	71	40.9	172	99	2740	3760	O=C1NCC(c2cccc(Cl)c2)C1c1ccc(Cl)c(Cl)c1 (configuration not stated)
26	55	24.3	22.7	98			O=C1NCC(c2cccc(Cl)c2)C1c1ccccc1 (configuration not stated)
59	26	14.3	38.7	98			O=C1NCC(c2cccc(Cl)c2)C1c1cccc(Cl)c1 (configuration not stated)
99	52	21.9	8.14	100	510		O=C1NCC(c2ccc(Cl)c(Cl)c2)C1c1ccccc1Cl (configuration not stated)
